Values of other authors as cited in US7772273B2 (LifeCycle Pharma A/S, priority 2006, dated 2010).
Like-named read-outs stand apart in the source and are kept apart here.

Assays:
[1] = at 25° C.
[2] = oral

| Water solubility [1] | Systemic availability of HMG-CoA reductase inhibitory activity [2] | Structure (SMILES) | LDL-C reduction (LDL-C; given with or without food) | LDL-C reduction (LDL-C; regardless of the time of day of drug administration) |
| --- | --- | --- | --- | --- |
| about 550 mg/mL |  | NC(CO)(CO)CO [Trometamol, 2-amino-2-(hydroxymethyl)-1,3-propanediol] |  |  |
|  | approximately 30% | CC(C)c1c(C(=O)Nc2ccccc2)c(-c2ccccc2)c(-c2ccc(F)cc2)n1CCC(O)CC(O)CC(=O)O (stereo not drawn) [atorvastatin, 2-(4-fluorophenyl)-β,δ-dihydroxy-5-(1-methylethyl)-3-phenyl-4-[(phenylamino)carbonyl]-1H-pyrrole-1-heptanoic acid] | similar | the same |
